According to patent US9708314B2, “Heterocyclic amide compound” (NISSAN CHEMICAL INDUSTRIES, LTD., priority 2013, dated 2017):

Tests used:
Format in all cases: in vivo
[1] = system: Glycine max; test: Test Example 4: effect on crop by application to foliage (diluvial soil, plastic box); settings: application to foliage, application herbicide amount 320 g/ha
Outline: (§1)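 Scores run from 0 (herbicidal ratio ≤5%) to 5 (≥90%, almost fully withered) and were assessed three weeks after foliar spraying. Seedlings had been raised for 14 days at 25-30° C in sterilized diluvial soil before treatment, with the emulsion diluted in water to the stated g/ha dose.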

[2] = system: Zea mays; test: as above; settings: application to foliage, application herbicide amount 320 g/ha
Outline: as §1

[3] = system: directly sowed Oryza sativa; test: as above; settings: application to foliage, application herbicide amount 320 g/ha
Outline: as §1

[4] = system: Brassica campestris L.; test: as above; settings: application to foliage, application herbicide amount 320 g/ha
Outline: as §1

[5] = system: Beta vulgaris ssp. vulgaris; test: as above; settings: application to foliage, application herbicide amount 320 g/ha
Outline: as §1

[6] = system: Triticum aestivum; test: as above; settings: application to foliage, application herbicide amount 320 g/ha
Outline: as §1

[7] = system: Alopecurus myosuroides; test: Test Example 4: herbicidal effect by application to foliage (diluvial soil, plastic box); settings: application to foliage, application herbicide amount 320 g/ha
Outline: as §1

[8] = system: Setaria viridis; test: as above; settings: application to foliage, application herbicide amount 320 g/ha
Outline: as §1

[9] = system: Galium spurium; test: as above; settings: application to foliage, application herbicide amount 320 g/ha
Outline: as §1

[10] = system: Digitaria ciliaris; test: as above; settings: application to foliage, application herbicide amount 320 g/ha
Outline: as §1

[11] = system: Avena fatua; test: as above; settings: application to foliage, application herbicide amount 320 g/ha
Outline: as §1

[12] = system: Apera spica-venti.; test: as above; settings: application to foliage, application herbicide amount 320 g/ha
Outline: as §1

[13] = system: Lolium multiflorum Lam.; test: as above; settings: application to foliage, application herbicide amount 320 g/ha
Outline: as §1

[14] = system: Abutilon theophrasti; test: as above; settings: application to foliage, application herbicide amount 320 g/ha
Outline: as §1

[15] = system: Veronica persica; test: as above; settings: application to foliage, application herbicide amount 320 g/ha
Outline: as §1

[16] = system: Chenopodium album; test: as above; settings: application to foliage, application herbicide amount 320 g/ha
Outline: as §1

[17] = system: Echinochloa crus-galli var. crus-galli; test: as above; settings: application to foliage, application herbicide amount 320 g/ha
Outline: as §1

[18] = system: transplanted Oryza sativa; test: Test Example 1: effect on crop, application before weed generation in submerged conditions; settings: Application herbicide amount 320 g/ha; Seventeenth Table
Outline: (§2)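 Alluvial soil in Wagner pots flooded to 4 cm water depth; weed seeds sown and 2.5 leaf stage rice seedlings transplanted. Emulsion diluted in water applied to water surface on sowing day at stated g/ha. Greenhouse 25° C. to 30° C.; effects scored 0–5 by herbicidal ratio after three weeks.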

[19] = system: Scirpus juncoides; test: Test Example 1: herbicidal activity, application before weed generation in submerged conditions; settings: Application herbicide amount 320 g/ha; Seventeenth Table
Outline: as §2

[20] = system: Echinochloa oryzacola Vasing.; test: as above; settings: Application herbicide amount 320 g/ha; Seventeenth Table
Outline: as §2

[21] = system: Monochoria vaginalis; test: as above; settings: Application herbicide amount 320 g/ha; Seventeenth Table
Outline: as §2

Compound | c (Glycine max) effect on crop [1] | b (Zea mays) effect on crop [2] | d (directly sowed Oryza sativa) effect on crop [3] | g (Brassica campestris L.) effect on crop [4] | f (Beta vulgaris ssp. vulgaris) effect on crop [5] | e (Triticum aestivum) effect on crop [6] | J (Alopecurus myosuroides) herbicidal effect [7] | G (Setaria viridis) herbicidal effect [8] | Q (Galium spurium) herbicidal effect [9] | F (Digitaria ciliaris) herbicidal effect [10] | I (Avena fatua) herbicidal effect [11] | L (Apera spica-venti.) herbicidal effect [12] | K (Lolium multiflorum Lam.) herbicidal effect [13] | M (Abutilon theophrasti) herbicidal effect [14] | R (Veronica persica) herbicidal effect [15] | O (Chenopodium album) herbicidal effect [16] | H (Echinochloa crus-galli var. crus-galli) herbicidal effect [17] | a: transplanted Oryza sativa (effect on crop grade) [18] | B: Scirpus juncoides (herbicidal effect grade) [19] | A: Echinochloa oryzicola Vasing. (herbicidal effect grade) [20] | further results
CCc1nnc(NC(=O)c2ccc(C(F)(F)F)n3c(C(C)C)nnc23)o1 [1-005] | 1 (Herbicidal ratio of 5% or more and less than 20%) | 0 (Herbicidal ratio of 5% or less (almost no effect)) | 0 (Herbicidal ratio of 5% or less (almost no effect)) | 0 (Herbicidal ratio of 5% or less (almost no effect)) | 0 (Herbicidal ratio of 5% or less (almost no effect)) | 0 (Herbicidal ratio of 5% or less (almost no effect)) | 0 (Herbicidal ratio of 5% or less (almost no effect)) | 3 (Herbicidal ratio of 40% or more and less than 70%) | 0 (Herbicidal ratio of 5% or less (almost no effect)) | 3 (Herbicidal ratio of 40% or more and less than 70%) | 1 (Herbicidal ratio of 5% or more and less than 20%) | 0 (Herbicidal ratio of 5% or less (almost no effect)) | 0 (Herbicidal ratio of 5% or less (almost no effect)) | 4 (Herbicidal ratio of 70% or more and less than 90%) | 3 (Herbicidal ratio of 40% or more and less than 70%) | 5 (Herbicidal ratio of 90% or more (almost completely withered)) | 4 (Herbicidal ratio of 70% or more and less than 90%) | 0 (Herbicidal ratio of 5% or less (almost no effect)) | 4 (Herbicidal ratio of 70% or more and less than 90%) | 5 (Herbicidal ratio of 90% or more (almost completely withered)) | C: Monochoria vaginalis (herbicidal effect grade) [21]: 4 (Herbicidal ratio of 70% or more and less than 90%)
CCC(C)c1nnc2c(C(=O)Nc3nnc(C)o3)ccc(C(F)(F)F)n12 (stereo not drawn) [1-021] | 0 (Herbicidal ratio of 5% or less (almost no effect)) | 1 (Herbicidal ratio of 5% or more and less than 20%) | 3 (Herbicidal ratio of 40% or more and less than 70%) | 3 (Herbicidal ratio of 40% or more and less than 70%) | 5 (Herbicidal ratio of 90% or more (almost completely withered)) | 1 (Herbicidal ratio of 5% or more and less than 20%) | 1 (Herbicidal ratio of 5% or more and less than 20%) | 3 (Herbicidal ratio of 40% or more and less than 70%) | 3 (Herbicidal ratio of 40% or more and less than 70%) | 4 (Herbicidal ratio of 70% or more and less than 90%) | 1 (Herbicidal ratio of 5% or more and less than 20%) | 1 (Herbicidal ratio of 5% or more and less than 20%) | 1 (Herbicidal ratio of 5% or more and less than 20%) | 5 (Herbicidal ratio of 90% or more (almost completely withered)) | 4 (Herbicidal ratio of 70% or more and less than 90%) | 5 (Herbicidal ratio of 90% or more (almost completely withered)) | 4 (Herbicidal ratio of 70% or more and less than 90%) | 2 (Herbicidal ratio of 20% or more and less than 40%) | 4 (Herbicidal ratio of 70% or more and less than 90%) | 5 (Herbicidal ratio of 90% or more (almost completely withered)) | C: Monochoria vaginalis (herbicidal effect grade) [21]: 4 (Herbicidal ratio of 70% or more and less than 90%)
Cc1nnc(NC(=O)c2ccc(C(F)(F)F)n3c(Br)nnc23)o1 [1-014] | 0 (Herbicidal ratio of 5% or less (almost no effect)) | 1 (Herbicidal ratio of 5% or more and less than 20%) | 3 (Herbicidal ratio of 40% or more and less than 70%) | 2 (Herbicidal ratio of 20% or more and less than 40%) | 5 (Herbicidal ratio of 90% or more (almost completely withered)) | 1 (Herbicidal ratio of 5% or more and less than 20%) | 1 (Herbicidal ratio of 5% or more and less than 20%) | 3 (Herbicidal ratio of 40% or more and less than 70%) | 3 (Herbicidal ratio of 40% or more and less than 70%) | 3 (Herbicidal ratio of 40% or more and less than 70%) | 1 (Herbicidal ratio of 5% or more and less than 20%) | 0 (Herbicidal ratio of 5% or less (almost no effect)) | 1 (Herbicidal ratio of 5% or more and less than 20%) | 4 (Herbicidal ratio of 70% or more and less than 90%) | 4 (Herbicidal ratio of 70% or more and less than 90%) | 5 (Herbicidal ratio of 90% or more (almost completely withered)) | 4 (Herbicidal ratio of 70% or more and less than 90%) | 0 (Herbicidal ratio of 5% or less (almost no effect)) | 4 (Herbicidal ratio of 70% or more and less than 90%) | 5 (Herbicidal ratio of 90% or more (almost completely withered)) | C: Monochoria vaginalis (herbicidal effect grade) [21]: 3 (Herbicidal ratio of 40% or more and less than 70%)
